Measured values as given in patent US12661415B2, “Isoindolinone compounds and imaging agents for imaging Huntingtin protein” (CHDI Foundation, Inc., priority 2021, dated 2026).
Entries after “also recorded” stand apart in the source; their conditions may differ.

Legend:
mHTT aggregates [1] = assay: In situ autoradiography (ARG) binding, human post-mortem brain sections; details: for specific HD binding at 0.3 nM radioligand: human HD brain sections
Source text: In situ autoradiography (ARG) was used to investigate the pharmacological binding characteristics of a tritium-labeled Compound 1-6 (“[^3H]-Compound 1-6”) in the HD mouse model 12-month-old HOM zQ175 and human post-mortem brains from healthy and HD gene-expanded carriers (HDGECs); specificity of binding was explored by including samples from Alzheimer's disease (AD) patients, which contain other pathological aggregates (e.g., Abeta-containing plaques and phosphor-Tau-expressing tangles). Saturation binding experiments were performed in coronal brain sections; [^3H]-Compound 1-6 binding was quantified by densitometric analysis and specific binding was determined in cortex (CTX). Affinity (KD) and maximum number of binding sites (Bmax) were determined for each region of interest (ROI).
The non-fixed and non-embedded frozen brains were sectioned by using a cryostat at −18° C. Thereby, serial coronal tissue sections of 20 μm thickness were mounted on superfrost slides and dried at room temperature for approximately 90 minutes. The slides were stored at −80° C. until the different experiments were conducted, but not longer than 3 weeks. A similar procedure was conducted with fresh-frozen human post-mortem brain blocks (healthy subjects {CTRL}, Huntingon's disease {HD}, and Alzheimer's disease {AD}).
The appropriate number of slides containing the respective tissue sections were acclimated to room temperature for 30 minutes. The slides were then pre-incubated by immersion into 40 mL assay buffer for 20 minutes at room temperature. Following this pre-incubation step, one slide per animal was incubated by immersion into 30 mL of the 10 nM, 3 nM, 1 nM, 0.3 nM, 0.1 nM, 0.03 nM, 0.01 nM, or 0.003 nM Compound 1-6 solutions and one slide was incubated by immersion into 30 mL of 10 nM, 3 nM, 1 nM, 0.3 nM, 0.1 nM, 0.03 nM, 0.01 nM, or 0.003 nM [^3H]-Compound 1-6, plus 10 μM unlabeled Compound 1-6 solutions for 60 minutes at room temperature, respectively. A similar paradigm was performed with tritium-labeled Comparative Compound 3 (“[^3H]-Comparative Compound 3”) and tritium-labeled Comparative Compound 4 (“[^3H]-Comparative Compound 4”). Structures of these comparative compounds and compound 1-6 are shown below.
Afterwards, the slides were washed three times for 10 minutes with 200 mL of ice cold washing buffer at 4° C. and dipped for three seconds in ice cold distilled water to remove buffer salts. The slides were dried for three hours at 30° C. and exposed for 96 hours to Fuji BAS-TR 2015 tritium phosphor screens together with the calibrated tritium standards ART 0123C and ART 0123B. Stored radiation energy on the screen was scanned using the phosphorimager Typhoon FLA 7000.
Densitometric data analysis was performed using the MCID Analysis 7.1 software (Interfocus Imaging Ltd.). Within each brain section, regions of interest (ROI) were defined for STR, CTX, and HPC by using appropriate sample tools, and the software calculated density measures from the gray level values of all pixels within a defined ROI (Molecular dynamics counts per unit area, MDC/mm^2). Densitometric calibration related the optical densities to known concentrations of radioactivity from the calibrated tritium standards (fmol/mg tissue) and mean values were calculated for each ROI of the individual brains. Total binding (TB) and non-specific binding (NSB) of the radioligand were quantified, and specific binding (SB) was derived by subtracting NSB from TB (SB=TB−NSB) for each brain and ROI, respectively. Subsequently, the group mean±standard deviation (SD) was calculated for each ROI and experimental condition. The data were fitted to one-site binding equation using non-linear regression method in GraphPad Prism Software.

mHTT aggregates [2] = biological target: mHTT aggregates (Mus musculus, UniProt P42859); assay: In situ autoradiography (ARG) saturation binding, HOM zQ175 HD mouse model brain sections; details: for Bmax: 12-month-old HOM zQ175, tritium-labeled radioligand
Chain of mHTT aggregates (Mus musculus, UniProt P42859) (P42859 whole entry): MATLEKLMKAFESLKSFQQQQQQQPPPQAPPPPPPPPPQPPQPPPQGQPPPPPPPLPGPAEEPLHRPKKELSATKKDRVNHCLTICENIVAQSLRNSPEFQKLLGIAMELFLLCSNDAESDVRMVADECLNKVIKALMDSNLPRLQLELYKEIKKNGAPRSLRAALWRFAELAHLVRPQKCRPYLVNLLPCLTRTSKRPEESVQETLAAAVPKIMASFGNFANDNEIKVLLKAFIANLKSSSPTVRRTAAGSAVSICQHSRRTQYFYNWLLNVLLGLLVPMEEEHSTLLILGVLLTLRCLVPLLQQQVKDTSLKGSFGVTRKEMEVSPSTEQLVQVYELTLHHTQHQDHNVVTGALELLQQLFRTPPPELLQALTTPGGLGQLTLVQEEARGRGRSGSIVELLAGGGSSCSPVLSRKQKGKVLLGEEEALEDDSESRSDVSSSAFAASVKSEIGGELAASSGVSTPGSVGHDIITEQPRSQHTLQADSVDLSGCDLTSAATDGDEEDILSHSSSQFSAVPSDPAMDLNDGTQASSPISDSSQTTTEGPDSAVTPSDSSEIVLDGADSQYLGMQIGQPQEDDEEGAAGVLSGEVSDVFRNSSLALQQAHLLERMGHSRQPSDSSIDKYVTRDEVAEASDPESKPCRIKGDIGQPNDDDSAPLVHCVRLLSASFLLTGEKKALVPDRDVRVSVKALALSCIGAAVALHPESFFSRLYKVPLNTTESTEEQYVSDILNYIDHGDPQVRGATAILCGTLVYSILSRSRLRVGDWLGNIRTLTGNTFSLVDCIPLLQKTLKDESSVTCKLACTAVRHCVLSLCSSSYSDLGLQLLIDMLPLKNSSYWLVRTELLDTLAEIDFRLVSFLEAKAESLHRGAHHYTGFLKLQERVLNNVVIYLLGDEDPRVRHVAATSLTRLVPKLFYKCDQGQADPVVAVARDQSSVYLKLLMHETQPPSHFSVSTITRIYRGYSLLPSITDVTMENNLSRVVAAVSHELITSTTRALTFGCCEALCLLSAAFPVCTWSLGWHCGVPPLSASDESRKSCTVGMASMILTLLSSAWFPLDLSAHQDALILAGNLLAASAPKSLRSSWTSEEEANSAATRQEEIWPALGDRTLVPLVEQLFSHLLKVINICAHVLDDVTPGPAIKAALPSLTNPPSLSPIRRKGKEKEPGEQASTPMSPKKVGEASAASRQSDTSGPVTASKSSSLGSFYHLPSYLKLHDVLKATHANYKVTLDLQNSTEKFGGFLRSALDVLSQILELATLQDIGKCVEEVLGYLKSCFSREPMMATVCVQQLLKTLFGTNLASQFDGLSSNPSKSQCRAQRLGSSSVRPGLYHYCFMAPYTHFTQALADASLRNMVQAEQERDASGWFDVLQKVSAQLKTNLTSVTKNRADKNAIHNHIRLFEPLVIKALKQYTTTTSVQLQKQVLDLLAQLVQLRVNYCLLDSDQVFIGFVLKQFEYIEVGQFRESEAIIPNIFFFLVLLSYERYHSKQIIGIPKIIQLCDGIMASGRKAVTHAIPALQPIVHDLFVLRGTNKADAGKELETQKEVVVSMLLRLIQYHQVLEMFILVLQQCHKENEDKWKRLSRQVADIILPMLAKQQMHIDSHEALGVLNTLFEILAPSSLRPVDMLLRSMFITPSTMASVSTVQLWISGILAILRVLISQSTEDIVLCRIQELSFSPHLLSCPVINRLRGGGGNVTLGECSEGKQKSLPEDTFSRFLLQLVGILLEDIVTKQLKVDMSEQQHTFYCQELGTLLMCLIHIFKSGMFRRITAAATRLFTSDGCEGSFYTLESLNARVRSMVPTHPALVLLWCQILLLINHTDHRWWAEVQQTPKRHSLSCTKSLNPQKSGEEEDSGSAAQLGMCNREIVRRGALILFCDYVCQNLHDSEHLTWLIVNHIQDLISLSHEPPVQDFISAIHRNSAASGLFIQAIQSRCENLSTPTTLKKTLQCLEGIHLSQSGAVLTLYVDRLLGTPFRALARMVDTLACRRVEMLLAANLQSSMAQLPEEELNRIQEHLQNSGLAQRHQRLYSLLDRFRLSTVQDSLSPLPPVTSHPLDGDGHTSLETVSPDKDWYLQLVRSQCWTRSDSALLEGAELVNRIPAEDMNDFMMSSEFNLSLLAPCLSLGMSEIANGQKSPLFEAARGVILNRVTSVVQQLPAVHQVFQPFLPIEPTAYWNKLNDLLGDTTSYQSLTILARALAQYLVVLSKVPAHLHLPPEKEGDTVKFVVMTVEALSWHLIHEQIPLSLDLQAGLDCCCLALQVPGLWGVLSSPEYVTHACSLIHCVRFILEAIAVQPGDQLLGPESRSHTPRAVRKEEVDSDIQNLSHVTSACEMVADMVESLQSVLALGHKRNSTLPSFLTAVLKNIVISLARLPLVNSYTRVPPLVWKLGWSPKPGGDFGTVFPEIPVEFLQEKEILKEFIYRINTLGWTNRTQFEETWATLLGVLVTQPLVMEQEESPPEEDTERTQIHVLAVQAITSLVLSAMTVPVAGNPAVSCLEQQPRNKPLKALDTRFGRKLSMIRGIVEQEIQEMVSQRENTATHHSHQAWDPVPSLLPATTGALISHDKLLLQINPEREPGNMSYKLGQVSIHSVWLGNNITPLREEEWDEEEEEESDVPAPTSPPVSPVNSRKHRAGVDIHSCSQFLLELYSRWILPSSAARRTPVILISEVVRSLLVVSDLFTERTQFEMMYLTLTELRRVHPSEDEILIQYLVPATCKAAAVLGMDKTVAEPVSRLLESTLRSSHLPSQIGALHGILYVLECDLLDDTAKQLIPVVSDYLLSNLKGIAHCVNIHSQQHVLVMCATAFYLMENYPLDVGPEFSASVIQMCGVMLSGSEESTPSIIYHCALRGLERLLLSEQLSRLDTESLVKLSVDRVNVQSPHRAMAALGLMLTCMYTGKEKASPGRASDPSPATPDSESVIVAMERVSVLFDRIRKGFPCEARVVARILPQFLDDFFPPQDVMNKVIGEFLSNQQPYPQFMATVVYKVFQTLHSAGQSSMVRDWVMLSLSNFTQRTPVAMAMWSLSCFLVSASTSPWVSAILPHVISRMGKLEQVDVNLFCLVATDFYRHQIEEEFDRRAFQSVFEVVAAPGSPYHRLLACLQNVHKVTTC
Source text: In situ autoradiography (ARG) was used to investigate the pharmacological binding characteristics of a tritium-labeled Compound 1-6 (“[^3H]-Compound 1-6”) in the HD mouse model 12-month-old HOM zQ175 and human post-mortem brains from healthy and HD gene-expanded carriers ([…]); specificity of binding was explored by including samples from Alzheimer's disease (AD) patients, which contain other pathological aggregates (e.g., Abeta-containing plaques and phosphor-Tau-expressing tangles). Saturation binding experiments were performed in coronal brain sections; [^3H]-Compound 1-6 binding was quantified by densitometric analysis and specific binding was determined in cortex (CTX). Affinity (KD) and maximum number of binding sites (Bmax) were determined for each region of interest (ROI). At the appropriate ages, HD and WT mice of the different strains were sacrificed by cervical dislocation, and the brains, including cerebellum, were dissected and washed in ice cold PBS. Subsequently, the brains were patted dry on paper towels and transferred into a 6-well plate filled with isopentane that was cooled to a temperature between -30° C. and -40° C. The frozen brains were stored at -80° C. until sectioning. The non-fixed and non-embedded frozen brains were sectioned by using a cryostat at -18° C. Thereby, serial coronal tissue sections of 20 μm thickness were mounted on superfrost slides and dried at room temperature for approximately 90 minutes. The slides were stored at -80° C. until the different experiments were conducted, but not longer than 3 weeks. A similar procedure was conducted with fresh-frozen human post-mortem brain blocks (healthy subjects {CTRL}, Huntingon's disease {HD}, and Alzheimer's disease {AD}). The appropriate number of slides containing the respective tissue sections were acclimated to room temperature for 30 minutes. The slides were then pre-incubated by immersion into 40 mL assay buffer for 20 minutes at room temperature. […] Within each brain section, regions of interest (ROI) were defined for STR, CTX, and HPC by using appropriate sample tools, and the software calculated density measures from the gray level values of all pixels within a defined ROI (Molecular dynamics counts per unit area, MDC/mm^2). Densitometric calibration related the optical densities to known concentrations of radioactivity from the calibrated tritium standards (fmol/mg tissue) and mean values were calculated for each ROI of the individual brains. Total binding (TB) and non-specific binding (NSB) of the radioligand were quantified, and specific binding (SB) was derived by subtracting NSB from TB (SB=TB-NSB) for each brain and ROI, respectively. Subsequently, the group mean±standard deviation (SD) was calculated for each ROI and experimental condition. […]

Structure (SMILES)	specific HD binding at 0.3 nM radioligand (mHTT aggregates [1])	Bmax (mHTT aggregates [2]; cortex)	specific binding, AD patients (mHTT aggregates [1]; cortex brain sections from AD patients)	specific binding, HD donors (mHTT aggregates [1]; frontal cortical sections from HD donors)	specific binding, CTRL tissue (mHTT aggregates [1]; frontal cortical sections, healthy subjects (CTRL))	binding to healthy control or Alzheimer's disease brain sections (mHTT aggregates [1]; human post-mortem brain sections)	binding density to juvenile HD brain (mHTT aggregates [1]; juvenile HD sample (one case) vs adult-onset HD brains)	white matter binding (mHTT aggregates [1]; post-mortem human brain, white matter)	binding to WT brain sections (mHTT aggregates [2]; WT mouse brain sections, only detectable above LLoQ (0.5 fmol/mg tissue) at 3 nM and 10 nM)	Bmax (concentration of specific binding sites) (mHTT aggregates [2]; cortex, 12-month-old HOM zQ175)
COc1ccc(NC(=O)c2ccn3c(n2)nc2ccccc23)cn1 [[^3H]-Comparative Compound 3, reference compound]	no HD binding was detectable; also recorded: failed to reveal HD binding	169 fmol/mg	–	–	–	–	–	–	–	–
COc1ccc(COc2ccc3c(c2)CN(c2ccc(=O)n(C)n2)C3=O)nc1 [[^3H]-Compound 1-6]	significant specific HD binding was detectable; also recorded: binds selectively to human HD brain sections	448 fmol/mg	0.1±0.0 fmol/mg tissue	0.8±0.2 fmol/mg tissue	0.0±0.0 fmol/mg tissue	little to no binding	highest binding density	≤ 0.5 fmol/mg tissue	minor	448.6 fmol/mg tissue
